From patent US9907847B2, “Pyrrolopyrimidines as therapeutic agents for the treatment of diseases” (GlaxoSmithKline LLC, priority 2012, dated 2018)
Structures can show the parent of a compound that is named as a salt.

Assays:
TNF-α = test: Induction of TNF-α using fresh human whole blood (WB); type: cell-based; details: three donors, overnight incubation, response as % of 2 μM resiquimod control, read-out: mean pEC50 for TNF-α (converted)
Procedure: (§1) Assay for the Induction of Interferon-[…] and TNF-[…] Using Fresh Human Whole Blood (WB)
(§2) Compounds were prepared at 100× required concentration in DMSO in flat-bottom microtitre plates at a volume of 1.5 μL. Columns 1-10 contained a 1 in 4 serial dilution of the test compound. Included on each plate was a serial dilution of the TLR7/8 agonist resiquimod as a standard and Column 11 contained 1.5 μl of 200 μM resiquimod (giving a 2 μM final concentration, used to define the approximate maximal response to resiquimod). Each compound was assayed in duplicate for each donor.
(§3) Blood samples from three human donors were collected into sodium heparin (10 U/ml). 150 μl of whole Blood was dispensed into Col 1 to 11 of assay plates containing 1.5 μl of test compound or standard in DMSO. Plates were placed in an incubator overnight (37° C., 95% air, 5% CO2). Following the overnight incubation, plates were removed from the incubator & mixed on an orbital shaker for approximately 1 minute. 100 μl of 0.9% saline was added to each well and the plates mixed again on an orbital shaker. Plates were then centrifuged (2500 rpm, 10 mins), after which a sample of plasma was removed using a Biomek FX and assayed for both IFN-α and TNF-α using the MSD (Mesoscale Discovery) electrochemiluminescence assay platform. The IFN-α assay was carried out similarly to that described above. The TNF-α assay was carried out as per kit instructions (Cat No K111BHB).
(§4) Cytokine released was expressed as a percentage of the 2 μM resiquimod control (column 11). This percentage was plotted against compound concentration and the pEC50 for the response determined by non-linear least squares curve fitting. For the IFN-α responses, generally a 4 parameter logistic model was selected. For the TNF-α responses where a clear maximum response was obtained (i.e. a well defined plateau in the response was observed) then a 4 parameter model was generally used. If the upper asymptote of the curve wasn't well defined then the curve fitting was generally constrained to a maximal response of 100% (i.e. to the response to 2 μM resiquimod) or to the response of the highest concentration tested if this was greater than the resiquimod response. Some curves were bell shaped for one or both cytokines and the cytokine data on the down slope of the bell shaped response (i.e. concentrations above those giving the maximal response) were generally excluded from the fit, usually with the exception of the concentration immediately above the peak response. Curve fitting thus concentrated on the up slope of the dose response curve.

IFN-α = test: Induction of interferon-α using fresh human whole blood (WB); type: cell-based; details: three donors, overnight incubation, response as % of 2 μM resiquimod control, read-out: mean pEC50 for IFN-α (converted)
Procedure: as §1, §2, §3, §4

EC50 (TNF-α) [µM]	EC50 (IFN-α) [µM]	SMILES
≥ 5.01	≤ 5.01	CCCCc1nc(N)c2[nH]c(C)c(CCCCCN3CC[C@@H](F)C3)c2n1 [Example 41, (R)-2-Butyl-7-(5-(3-fluoropyrrolidin-1-yl)pentyl)-6-methyl-5H-pyrrolo[3,2-d]pyrimidin-4-amine]
≥ 5.01	≤ 5.01	CCCCc1nc(N)c2[nH]c(C)c(CCCCCN3CC[C@H](F)C3)c2n1 [Example 40, (S)-2-Butyl-7-(5-(3-fluoropyrrolidin-1-yl)pentyl)-6-methyl-5H-pyrrolo[3,2-d]pyrimidin-4-amine]
≥ 5.01	≤ 5.01	CCOCc1nc(N)c2[nH]cc(CCCCCCN3CCCCC3)c2n1 [Example 4, 2-(Ethoxymethyl)-7-(6-(piperidin-1-yl)hexyl)-5H-pyrrolo[3,2-d]pyrimidin-4-amine]
≥ 5.01	≤ 5.01	CCCCc1nc(N)c2[nH]cc(CCCCCCN3CC[C@@H](F)C3)c2n1 [Example 32, (R)-2-Butyl-7-(6-(3-fluoropyrrolidin-1-yl)hexyl)-5H-pyrrolo[3,2-d]pyrimidin-4-amine]
≥ 5.01	≤ 5.01	COCCc1nc(N)c2[nH]cc(CCCCCN3CCC(F)CC3)c2n1 [Example 22, 7-(5-(4-Fluoropiperidin-1-yl)pentyl)-2-(2-methoxyethyl)-5H-pyrrolo[3,2-d]pyrimidin-4-amine]
≥ 5.01	≤ 5.01	CCCCc1nc(N)c2[nH]cc(CCCCCN3CC(C)C3)c2n1 [Example 36, 2-Butyl-7-(5-(3-methylazetidin-1-yl)pentyl)-5H-pyrrolo[3,2-d]pyrimidin-4-amine]
≥ 5.01	≤ 5.01	CCCCc1nc(N)c2[nH]cc(CCCCCN3CCCC3)c2n1 [Example 9, 2-Butyl-7-(5-(pyrrolidin-1-yl)pentyl)-5H-pyrrolo[3,2-d]pyrimidin-4-amine formate]
≥ 5.01	≤ 5.01	COCCc1nc(N)c2[nH]cc(CCCCCCN3CCCCC3)c2n1 [Example 5, 2-(2-Methoxyethyl)-7-(6-(piperidin-1-yl)hexyl)-5H-pyrrolo[3,2-d]pyrimidin-4-amine hydrochloride]
≥ 5.01	≤ 5.01	CCCCc1nc(N)c2[nH]cc(CCCCCN3CCC[C@@H]3C)c2n1 [Example 34, (S)-2-Butyl-7-(5-(2-methylpyrrolidin-1-yl)pentyl)-5H-pyrrolo[3,2-d]pyrimidin-4-amine]
